This is an account of results in PMC11393453, “Phosphorylation of tau at a single residue inhibits binding to the E3 ubiquitin ligase, CHIP” (Nature Communications, 2024).

Where two headings read alike, the source gives them in different places.

Test [1] deals with CHIP. Briefly: NanoBiT live cell PPI assay (CHIP-tau split luciferase). As to conditions: Fig 1B, normalized to FL tau with vehicle, 30nM OA. It counts as cell-based. On the procedure:
Fig. 1 Phosphorylation of tauC3 inhibits interaction with CHIP. A Cartoon schematic of the live-cell NanoBiT assay for measuring CHIP-tau PPIs (NanoBiT PDB = 7SNX; CHIP PDB = 2C2L). B Results of NanoBiT assays for CHIP interactions with tau proteoforms following treatment with okadaic acid (30 nM, 18 h) or DMSO control. Luminescence normalized to CHIP binding to FL 0N4R tau treated with vehicle (dashed line). Error bars represent standard deviation (SD). Statistical significance was determined by two-way ANOVA with Bonferroni’s post hoc analysis (n = 3 biological replicates). CTRL = mock transfected control. C Tau proteoforms binding to immobilized CHIP measured by ELISA. Assay was performed in technical triplicate and normalized to maximum absorbance at 450 nm. D Dissociation constants derived from (C). Error bars represent SD. E In vitro ubiquitination of tau proteoforms by CHIP. Samples were collected at the denoted timepoints, quenched in SDS-PAGE loading buffer, and analyzed by western blot. Assay was performed once.
Fig. 2 Phosphorylation of tauC3 Ser416 is sufficient to inhibit interaction with CHIP. A Cartoon depicting constructs used for mapping of inhibitory phosphorylation sites by NanoBiT live cell assays. B NanoBiT live cell assay for CHIP interactions with truncated tau constructs following treatment with okadaic acid (30 nM, 18 h) or DMSO control. Data are shown as the difference between okadaic acid treated samples and vehicle control. Error bars represent SD. Statistical significance was determined by two-sided, one-way ANOVA with Tukey’s post hoc analysis (n = 3 biological replicates). C Apparent change in melting temperatures (Tmapp) for CHIP incubated with DMSO control or Hsp70 C-terminal peptides, as determined by DSF. Error bars represent SD. (n = 4 technical replicates). D DSF experiments performed and analyzed as in the previous panel, but with tauC3-derived peptides. (n = 4 technical replicates). E Competition FP experiment showing displacement of fluorescent tracer from the CHIP TPR domain by various 10-mer Hsp70 or tauC3-derived peptides. Experiments were performed in technical quadruplicate. F Inhibition constants derived from (E). Error bars represent SD. G Tau proteoforms binding to immobilized CHIP, as measured by ELISA. Assay was performed in technical triplicate and normalized to maximum absorbance at 450 nm. H Dissociation constants derived from (G). Error bars represent SD.
CHIP-substrate NanoBiT PPI assay was performed as previously described. Briefly, HEK293T cells were seeded in poly-D-lysine coated 96-well plates (Corning, flat bottom, white opaque) in Opti-MEM. Cells were transfected with 50 ng each SmBiT/LgBiT DNA using Lipofectamine 3000 (Thermo Fisher) in Opti-MEM according to the manufacturer’s instructions. Transfections were performed for 24 h, after which the media was replaced with fresh Opti-MEM containing DMSO or 30 nM okadaic acid. Cells were incubated for an additional […] at 37 °C/5% CO2 in a humidified incubator. Following this incubation, 12.5 uL 1X Nano-Glo live cell luciferase reagent (Promega) diluted in LCS buffer (Promega) was added to each well, and samples were incubated for 10 min at room temperature in the dark to allow luminescence levels to stabilize. […] Un-transfected cells were used to obtain background measurements which were subtracted from observed luminescence values.

For test [2], the target named is CHIP. Put plainly: CHIP-tau binding ELISA (tau proteoforms on immobilized CHIP). The settings on record: Fig 1D. (An ELISA detects its analyte on a solid surface through an enzyme-linked reagent.)

As a reminder, the Kd is the equilibrium constant for the complex coming apart. As for “tau: full length (FL) 0N4R splice isoform of tau, unmodified; recombinant or expressed in cells”, the “fold change of luminescence” value was determined as 1.804 in the test on CHIP [1] (replicate 1), 1.978 in the test on CHIP [1] (replicate 2) and 1.758 in the test on CHIP [1] (replicate 3). The Kd came out at 5.98 µM on CHIP [2] (replicate 1); 6.43 µM on CHIP [2] (replicate 2); 6.35 µM at CHIP [2] (replicate 3); 5.98 µM on CHIP [2] (read-out: transformed Kd, replicate 1); 6.43 µM on CHIP [2] (read-out: transformed Kd, replicate 2); 6.35 µM on CHIP [2] (read-out: transformed Kd, replicate 3).
